Legend:
Leishmania donovani = test: Antiparasitic activity against axenic amastigotes of Leishmania donovani; type: functional, organism-based
[1] = test system: Trypanosoma brucei rhodesiense; test: Antiparasitic activity against blood stream form of Trypanosoma brucei rhodesiense; type: functional, organism-based
Trypanosoma cruzi = test: Antiparasitic activity against amastigotes of Trypanosoma cruzi; type: functional, organism-based
[2] = Cytotoxicity against rat L6 cells; type: cell-based; details: read-out: TD50 (the source's name)

SMILES | EC50 (Leishmania donovani) [µM] | EC50 [1] [µM] | EC50 (Trypanosoma cruzi) [µM] | CC50 [2] [µM]
COC(=O)CCCNCCc1ccc(NC(=O)c2ccc(COC(C)=O)cc2)cc1 | 73 | 11.5 | 141 | > 218
COC(=O)CCCNCc1ccc(NC(=O)c2ccc(COC(C)=O)cc2)cc1 | 2.6 | 78 | 207 | 161
CC(=O)OCc1ccc(NC(=O)N2CCC(CO)C2)cc1 (centres undefined) | 26 | 52 | > 308 | > 308
COC(=O)CCCNCC1CCN(C(=O)Nc2ccc(COC(C)=O)cc2)C1 (centres undefined) | 80 | 40 | > 230 | > 230
CC(=O)OCc1ccc(NC(=O)N2CCC(CN3CCCC3=O)C2)cc1 (centres undefined) | 30 | 43 | 181 | > 250
COC(=O)CCCCCNCC1CCN(C(=O)Nc2ccc(COC(C)=O)cc2)C1 (centres undefined) | 41 | 76 | > 215 | > 214

Reference: ChEMBL document CHEMBL1250554, “Design and preparation of sterol mimetics as potential antiparasitics” (Bioorg Med Chem, 2010)
